Patent US4963542A, “Cephalosporin derivatives” (Takeda Chemical Industries, Ltd., priority 1976, dated 1990)

Key:
[1] = tested on: Klebsiella pneumoniae GN-3835; test: Minimal inhibitory concentration, agar serial dilution; type: cell-based; conditions: TSA, inoculum 10^7 /ml
Excerpt: (§1) (a) Minimal inhibitory concentrations (Table 1 and 2)
(§2) Method: Agar serial dilution

Escherichia coli 0-111 [2] = test: as above; type: cell-based; conditions: TSA, inoculum 10^7 /ml
Excerpt: as §1, §2

Proteus rettgeri TN338 = test: as above; type: cell-based; conditions: TSA, inoculum 10^7 /ml
Excerpt: as §1, §2

[3] = tested on: Escherichia coli NIHJ JC-2; test: as above; type: cell-based; conditions: TSA, inoculum 10^7 /ml
Excerpt: as §1, §2

Serratia marcescens TN24 = test: as above; type: cell-based; conditions: TSA, inoculum 10^7 /ml
Excerpt: as §1, §2

Proteus vulgaris GN4413 = test: as above; type: cell-based; conditions: TSA, inoculum 10^7 /ml
Excerpt: as §1, §2

Proteus morganii IFO3168 = test: as above; type: cell-based; conditions: TSA, inoculum 10^7 /ml
Excerpt: as §1, §2

[4] = tested on: Citrobacter freundii GN99; test: as above; type: cell-based; conditions: TSA, inoculum 10^7 /ml
Excerpt: as §1, §2

[5] = tested on: Staphylococcus aureus 209P; test: as above; type: cell-based; conditions: TSA, inoculum 10^7 /ml
Excerpt: as §1, §2

Proteus mirabilis GN4359 = test: as above; type: cell-based; conditions: TSA, inoculum 10^7 /ml
Excerpt: as §1, §2

[6] = tested on: Enterobacter cloacae TN1282; test: as above; type: cell-based; conditions: TSA, inoculum 10^7 /ml
Excerpt: as §1, §2

[7] = tested on: Serratia marcescens IFO 12648; test: as above; type: cell-based; conditions: TSA, inoculum 10^7 /ml
Excerpt: as §1, §2

[8] = tested on: Staphylococcus aureus 1840; test: as above; type: cell-based; conditions: TSA, inoculum 10^7 /ml
Excerpt: as §1, §2

[9] = tested on: Proteus vulgaris IFO 3988; test: as above; type: cell-based; conditions: TSA, inoculum 10^7 /ml
Excerpt: as §1, §2

Klebsiella pneumoniae DT = test: as above; type: cell-based; conditions: TSA, inoculum 10^7 /ml
Excerpt: as §1, §2

Proteus rettgeri GN4733 = test: as above; type: cell-based; conditions: TSA, inoculum 10^7 /ml
Excerpt: as §1, §2

Escherichia coli T-7 = test: as above; type: cell-based; conditions: TSA, inoculum 10^7 /ml
Excerpt: as §1, §2

[10] = tested on: Citrobacter freundii GN1706; test: as above; type: cell-based; conditions: TSA, inoculum 10^7 /ml
Excerpt: as §1, §2

Escherichia coli 0-111 [11] = test: Therapeutic effects on infected mice; type: in vivo, Male mouse, ICR/SLC; conditions: Escherichia coli, 0111, sc, 168 h, s.c. single dose immediately after intraperitoneal infection, 7 days observation
Method: The therapeutic efficacies of several representative compounds [I] of this invention and of cephaloridine on infected mice are also set forth in the tables.
(b) Therapeutic effects on infected mice (Table 3 and Table 4)
Test animal: Male mouse, ICR/SLC
A group of five animals was employed per drug.
Route of infection: Intraperitoneal
Infectious bacteria: Escherichia coli 0-111
Period of observation: 7 days
Method of administration: Test compound (1 mg, 10 mg, 100 mg or 200 mg) was dissolved in sterile saline solution (100 ml) and 0.2 ml of the solution was administered subcutaneously as a single dose immediately after infection. Two fold dilutions of each solution were administered to five groups of 5 mice each.

Row | SMILES | Minimal inhibitory concentration (MIC) [1] | Minimal inhibitory concentration (MIC) (Escherichia coli 0-111 [2]) | Minimal inhibitory concentration (MIC) (Proteus rettgeri TN338) | Minimal inhibitory concentration (MIC) [3] | Minimal inhibitory concentration (MIC) (Serratia marcescens TN24) | Minimal inhibitory concentration (MIC) (Proteus vulgaris GN4413) | Minimal inhibitory concentration (MIC) (Proteus morganii IFO3168) | Minimal inhibitory concentration (MIC) [4] | Minimal inhibitory concentration (MIC) [5] | Minimal inhibitory concentration (MIC) (Proteus mirabilis GN4359) | Minimal inhibitory concentration (MIC) [6] | Minimal inhibitory concentration (MIC) [7] | Minimal inhibitory concentration (MIC) [8] | Minimal inhibitory concentration (MIC) [9] | Minimal inhibitory concentration (MIC) (Klebsiella pneumoniae DT) | Minimal inhibitory concentration (MIC) (Proteus rettgeri GN4733) | Minimal inhibitory concentration (MIC) (Escherichia coli T-7) | Minimal inhibitory concentration (MIC) [10] | ED50 (Escherichia coli 0-111 [11]; Table 3) | ED50 (Escherichia coli 0-111 [11]; Table 4)
1 | O=C(Cc1cccs1)N[C@@H]1C(=O)N2C(C(=O)[O-])=C(C[n+]3ccccc3)CS[C@H]12 [Cephaloridine, 7-(2-thienylacetamido)-3-(1-pyridyl)methyl-3-cephem-4-carboxylic acid betaine, reference compound] | 12.5 | 1.56 | 1.56 | 3.13 | > 100 | > 100 | > 100 | 50 | 0.05 | 6.25 | > 100 | > 100 | 0.39 | 6.25 | 1.56 | > 100 | > 100 | > 100 | 2.6 mg/kg | 1.81 mg/kg
2 | Cc1nnc(SCC2=C(C(=O)O)N3C(=O)C(NC(=O)/C(=N\O)c4csc(=N)[nH]4)C3SC2)s1 (stereo not drawn) [Example 16, sodium 7-[2-(2-imino-4-thiazolin-4-yl)-2-hydroxyimino-acetamido]-3-(2-methyl-1,3,4-thiadiazol-5-yl)thiomethyl-3-cephem-4-carboxylate (syn-isomer)] | 0.20 | 0.024 | ≤ 0.012 | 0.10 | 0.78 | 6.25 | 0.05 | 0.10 | 0.39 | 0.20 | 6.25 | 3.13 | 0.78 | 0.10 | 0.05 | 0.10 | 1.56 | 0.20 |  | 0.035 mg/kg
3 | Cn1nnnc1SCC1=C(C(=O)O)N2C(=O)C(NC(=O)/C(=N\O)c3csc(=N)[nH]3)C2SC1 (stereo not drawn) [Example 12, sodium 7-[2-(2-imino-4-thiazolin-4-yl)-2-hydroxyimino-acetamido]-3-(1-methyl-1H-tetrazol-5-yl)thiomethyl-3-cephem-4-carboxylate (syn-isomer)] | 0.10 | ≤ 0.012 | ≤ 0.012 | 0.05 | 0.39 | 6.25 | 0.024 | 0.05 | 0.39 | 0.10 | 1.56 | 0.78 | 0.78 | 0.05 | 0.024 | 0.05 | 0.78 | 0.10 | 0.028 mg/kg | 
4 | CC(=O)OCC1=C(C(=O)O)N2C(=O)C(NC(=O)/C(=N\O)c3csc(=N)[nH]3)C2SC1 (stereo not drawn) [Example 5, sodium 7-[2-(2-imino-4-thiazolin-4-yl)-2-hydroxyimino-acetamido]-3-acetoxymethyl-3-cephem-4-carboxylate (syn-isomer)] | 0.05 | ≤ 0.012 | ≤ 0.012 | 0.024 | 1.56 | 12.5 | 0.20 | 0.05 | 0.39 | 0.05 | 6.25 | 6.25 | 0.39 | 0.05 | ≤ 0.012 | 0.024 | 0.39 | 0.10 | 0.033 mg/kg | 
5 | Cn1cnnc1SCC1=C(C(=O)O)N2C(=O)C(NC(=O)/C(=N\O)c3csc(=N)[nH]3)C2SC1 (stereo not drawn) [Example 15, sodium 7-[2-(2-imino-4-thiazolin-4-yl)-2-hydroxyimino-acetamido]-3-(4-methyl-1,2,4-triazol-3-yl)thiomethyl-3-cephem-4-carboxylate (syn-isomer)] | 0.05 | ≤ 0.012 | ≤ 0.012 | 0.024 | 0.78 | 3.13 | 0.024 | 0.05 | 0.78 | 0.10 | 1.56 | 0.78 | 0.78 | 0.05 | 0.024 | 0.10 | 0.39 | 0.05 |  | 0.016 mg/kg
